Data: patent US11185539B2 (priority 2017, dated 2021)

What was measured:
[1] = tested on: primary human cardiac fibroblasts (HCFs); assay: Proliferation of primary human cardiac fibroblasts, BrdU-ELISA; type: cell-based; details: 24 h; for proliferation of primary HCFs: 0.1, 1, 10 μM (Lycorine 1, 5, 10 μM), DMSO control; for proliferation of HCFs (derivative screen): 10 μM, DMSO solvent control
Procedure: HCFs were incubated with 0.1 μM, 1 μM and 10 μM Bufalin, Gitoxigenin, Anisomycin and Geldanamycin as well as with 1 μM, 5 μM and 10 μM Lycorine for 24 h and proliferation of HCFs was measured by BrdU-ELISA (see FIG. 1). Due to major drawbacks as a drug candidate, Geldanamycin was not included in the follow-up studies, in particular in the in vivo experiments.
(§1) HCFs and HL-1 cells were treated with Bufalin, Gitoxigenin, Lycorine and Anisomycin for 24 h with the same concentrations as indicated in Example 1 and proliferation of HCFs and cardiomyocyte cell line HL-1 cells was measured by BrdU-ELISA, DMSO refers as a control (see FIG. 2B, 3B, 4B, 5B). The cell proliferation ELISA is a colorimetric alternative to quantitate cell proliferation based on the measurement of BrdU incorporation during DNA synthesis in proliferating cells. After its incorporation into DNA, BrdU is detected by immunoassay by using antibodies being highly specific for BrdU. First, HCFs and/or HL-1 cells are cultured together with various dilutions of test substances (e.g. mitogens, growth factors, cytokines and test compounds such as Bufalin, Gitoxigenin, Lycorine and Anisomycin as mentioned above etc.) in a 96-well in a final volume of 100 μl/well in a humified atmosphere of 37° C. Afterwards, 10 μl/well BrdU labeling solution is added to the cells being cultured in 100 μl/well (final concentration: 10 μM BrdU). Then, cells were re-incubated for additional 2 to 24 h at 37° C. Next, labeling solution is removed and 200 μl/well FixDenat is added to the cells and incubated for 30 min at 15 to 25° C. Then, 100 μl/well anti-BrdU-POD working solution is added and incubated for approximately 90 min, after FixDenat is removed. Next, antibody conjugate is removed and wells are washed with 200 μl-300 μl/well Washing solution (PBS, 1×). After the washing solution is removed, 100 μl/well Substrate solution is added and it is incubated again until color development is sufficient for photometric detection. Further, HCFs were treated with said compounds (Lycorine: 5 μM, Bufalin: 1 μM, Gitoxigenin: 1 μM and Anisomycin: 1 μM) for 24 h as indicated again and subjected to FACS analysis after Annexin-7AAD-staining (see FIG. 2C, 3C, 4C, 5C). After the treatment with said compounds, annexin-7AAD-staining starts with inducing apoptosis in HCFs by a desired method, known to the person skilled in the art, a negative control (w/o induction and staining) and a positive control (f. ex. 500 μM H2O2 or 3 μM Staurosporin) is also needed. Then, the medium with HCFs is transferred into a falcon, washed with PBS and trypsinized. Everything is centrifuged for 5 min at 300×g and then the supernatant is aspirated. The pellet is re-suspended in 200 μl Annexin Red/7AAD Working Solution (1:20, 5 μl Annexin Red/7AAD+195 μl 1× Assay Buffer) and transferred into an Easy Cap Eppendorf tube. After incubation of 15 min at 37° C., it is centrifuged at room temperature (RT) for 5 min at 300×g. Then, the supernatant is aspirated, the pellet washed once with 200 μl 1× Assay Buffer and centrifuged again at RT for 5 min at 300×g. Again, the supernatant is aspirated and the pellet is re-suspended in 200 μl Annexin Red/7AAD working solution and incubated again at RT for 5 min in the dark. Samples are now ready for acquisition on a flow cytometer (blue and red laser).
The cells were incubated for 24 h with 10 μM Bufalin and Lycorine and with 10 μM derivatives of Bufalin (derivatives 3, 5, 6, 7, 8, 9, 10, 11, 12, 13, 14, 16, 17, 18 and 25) and Lycorine (derivative 1, 2, 4, 15, 19, 20, 21, 22, 23, 24 and 26). Then, proliferation of HCFs was measured by BrdU-ELISA (see FIG. 31).

[2] = tested on: miR-671-5p; assay: miR-671-5p expression in HCFs, qRT-PCR; type: cell-based, human; details: Lycorine 5 μM, others 1 μM, 24 h, vs DMSO
[3] = Plasma markers of kidney and liver damage, angiotensin II model; type: in vivo, mice; details: Bufalin 0.5, Gitoxigenin 0.01, Lycorine 4.5, Anisomycin 10 mg/kg i.p. every other day; day 14
Procedure: HF was induced in mice (Example 3) and Bufalin (0.5 mg/kg), Gitoxigenin (0.01 mg/kg), Lycorine (4.5 mg/kg), and Anisomycin (10 mg/kg) were injected as indicated in Example 3. Fourteen days after the operation, EDTA-plasma samples were drawn (n=2-3 per group) (see FIGS. 26 and 27).

[4] = tested on: Collagen1a1; assay: Collagen1a1 protein levels in HCFs, Western Blot; type: cell-based, human; details: Lycorine 5 μM, Bufalin, Gitoxigenin, Anisomycin 1 μM, 24 h, DMSO control
Procedure: Additionally, HCFs were treated with said compounds (Lycorine: 5 μM, Bufalin: 1 μM, Gitoxigenin: 1 μM and Anisomycin: 1 μM) for 24 h as indicated again, lysed and analyzed for extracellular matrix component Collagen1a1 protein levels in primary HCFs (normalized to GAPDH) by representative Western Blot, DMSO refers as a control (see FIG. 2D, 3D, 4D, 5D).

[5] = tested on: primary HCFs; assay: Cell death in HCFs, FACS after Annexin-7AAD-staining; type: cell-based, human; details: Lycorine 5 μM, Bufalin, Gitoxigenin, Anisomycin 1 μM, 24 h
Procedure: as §1, with “Then, the supernatant is aspirated, the pellet washed once with 200 μl 1× Assay Buffer and centrifuged again at RT for 5 min at 300×g. Again, the supernatant is aspirated and the pellet is re-suspended in 200 μl Annexin Red/7AAD working solution and incubated again at RT for 5 min in the dark.” left out

| Structure (SMILES) | proliferation of primary HCFs [1] | expression levels of miR-671-5p (normalized to RNU48) [2] | plasma marker of kidney and liver damage (GOT, GPT, creatinine, urea) [3] | expression levels of Collagen1a1 (normalized to GAPDH) [4] | cell death in primary HCFs (Annexin-7AAD-staining) [5] | proliferation of HCFs (derivative screen) [1] |
| --- | --- | --- | --- | --- | --- | --- |
| C[C@]12CC[C@H](O)C[C@H]1CC[C@@H]1[C@@H]2CC[C@]2(C)[C@@H](C3=CC(=O)OC3)[C@@H](O)C[C@]12O [Gitoxigenin] | Dose-dependent inhibitory effects | decreased | no elevation | decreases expression levels | does not induce cell death |  |
| C[C@]12CC[C@H](O)C[C@H]1CC[C@@H]1[C@@H]2CC[C@]2(C)[C@@H](c3ccc(=O)oc3)CC[C@]12O [Bufalin] | Dose-dependent inhibitory effects | decreased | no elevation | decreases expression levels | does not induce cell death | proliferation is prevented |
| O[C@H]1[C@H]2c3cc4c(cc3CN3CCC(=C[C@@H]1O)[C@H]23)OCO4 [Lycorine] | Dose-dependent inhibitory effects | decreased | no elevation | decreases expression levels | does not induce cell death | proliferation is prevented |
| COc1ccc(C[C@H]2NC[C@H](O)[C@H]2OC(C)=O)cc1 [Anisomycin] | Dose-dependent inhibitory effects | decreased | no elevation | decreases expression levels | does not induce cell death |  |
